According to US6352958B1, “Cycloimido-substituted benzofused heterocyclic herbicides” (FMC Corporation, priority 1997, dated 2002):

Tests used:
Type in all cases: in vivo
[1] = tested on: green foxtail (Setaria viridis); assay: Preemergence herbicidal activity, green foxtail; settings: Rate of Application 0.3 Kg/Ha, examined after 12-17 days
Method: (§1) The benzofused heterocyclic compounds of this invention were tested for pre- and postemergence herbicidal activity using a variety of crops and weeds. The test plants included soybean (Glycine max var. Winchester), field corn (Zea mays var. Pioneer 3732), wheat (Triticum aestivum var. Lew), morningglory (Ipomea lacunosa or Ipomea hederacea), velvetleaf (Abutilon theophrasti), green foxtail (Setaria viridis), Johnsongrass (Sorghum halepense), blackgrass (Aloepecurus myosuroides), common chickweed (Stellaria media), and common cocklebur (Xanthium strumarium L.).
(§2) For preemergence testing, two disposable fiber flats (8 cm×15 cm×25 cm) for each rate of application of each candidate herbicide were filled to an approximate depth of 6.5 cm with steam-sterilized sandy loam soil. The soil was leveled and impressed with a template to provide five evenly spaced furrows 13 cm long and 0.5 cm deep in each flat. Seeds of soybean, wheat, corn, green foxtail, and johnsongrass were planted in the furrows of the first flat, and seeds of velvetleaf, morningglory, common chickweed, cocklebur, and blackgrass were planted in the furrows of the second flat. The five-row template was employed to firmly press the seeds into place. A topping soil of equal portions of sand and sandy loam soil was placed uniformly on top of each flat to a depth of approximately 0.5 cm. Flats for postemergence testing were prepared in the same manner except that they were planted 9-14 days prior to the preemergence flats and were placed in a greenhouse and watered, thus allowing the seeds to germinate and the foliage to develop.
(§3) In both pre- and postemergence tests, a stock solution of the candidate herbicide was prepared by dissolving 0.27 g of the compound in 20 mL of water/acetone (50/50) containing 0.5% v/v sorbitan monolaurate. For an application rate of 3000 g/ha of herbicide a 10 mL portion of the stock solution was diluted with water/acetone (50/50) to 45 mL.
(§4) The preemergence flats were initially subjected to a light water spray. The four flats were placed two by two along a conveyor belt (i.e., the two preemergence followed by the two postemergence flats). The conveyor belt fed under a spray nozzle mounted about ten inches above the post-emergent foliage. The preemergent flats were elevated on the belt so that the soil surface was at the same level below the spray nozzle as the foliage canopy of the postemergent plants. The spray of herbicidal solution was commenced and once stabilized, the flats were passed under the spray at a speed to receive a coverage equivalent of 100 L/ha. At this coverage the application rates are those shown in the above table for the individual herbicidal solutions. The preemergence flats were watered immediately thereafter, placed in the greenhouse and watered regularly at the soil surface. The postemergence flats were immediately placed in the green-house and not watered until 24 hours after treatment with the test solution. Thereafter they were regularly watered at ground level. After 12-17 days the plants were examined and the phytotoxicity data were recorded.
(§5) Phytotoxicity data were taken as percent control. Percent control was determined by a method similar to the 0 to 100 rating system disclosed in “Research Methods in Weed Science,” 2nd ed., B. Truelove, Ed.; Southern Weed Science Society; Auburn University, Auburn, Ala., 1977.

[2] = tested on: Johnsongrass (Sorghum halepense); assay: Postemergence herbicidal activity, johnsongrass; settings: rate of application 0.3 Kg/Ha, rated after 12-17 days
Method: as §1, §2, §3, §4, §5

[3] = tested on: common cocklebur (Xanthium strumarium L.); assay: Preemergence herbicidal activity, cocklebur; settings: Rate of Application 0.3 Kg/Ha, examined after 12-17 days
Method: as §1, §2, §3, §4, §5

[4] = tested on: Johnsongrass (Sorghum halepense); assay: Preemergence herbicidal activity, johnsongrass; settings: Rate of Application 0.3 Kg/Ha, examined after 12-17 days
Method: as §1, §2, §3, §4, §5

[5] = tested on: morningglory (Ipomea lacunosa or Ipomea hederacea); assay: Preemergence herbicidal activity, morningglory; settings: Rate of Application 0.3 Kg/Ha, examined after 12-17 days
Method: as §1, §2, §3, §4, §5

[6] = tested on: field corn (Zea mays var. Pioneer 3732); assay: Preemergence herbicidal activity, corn; settings: Rate of Application 0.3 Kg/Ha, examined after 12-17 days
Method: as §1, §2, §3, §4, §5

[7] = tested on: soybean (Glycine max var. Winchester); assay: Postemergence herbicidal activity, soybean; settings: rate of application 0.3 Kg/Ha, rated after 12-17 days
Method: as §1, §2, §3, §4, §5

[8] = tested on: common chickweed (Stellaria media); assay: Preemergence herbicidal activity, chickweed; settings: Rate of Application 0.3 Kg/Ha, examined after 12-17 days
Method: as §1, §2, §3, §4, §5

[9] = tested on: wheat (Triticum aestivum var. Lew); assay: Postemergence herbicidal activity, wheat; settings: rate of application 0.3 Kg/Ha, rated after 12-17 days
Method: as §1, §2, §3, §4, §5

[10] = tested on: common chickweed (Stellaria media); assay: Postemergence herbicidal activity, chickweed; settings: rate of application 0.3 Kg/Ha, rated after 12-17 days
Method: as §1, §2, §3, §4, §5

[11] = tested on: velvetleaf (Abutilon theophrasti); assay: Preemergence herbicidal activity, velvetleaf; settings: Rate of Application 0.3 Kg/Ha, examined after 12-17 days
Method: as §1, §2, §3, §4, §5

[12] = tested on: green foxtail (Setaria viridis); assay: Postemergence herbicidal activity, green foxtail; settings: rate of application 0.3 Kg/Ha, rated after 12-17 days
Method: as §1, §2, §3, §4, §5

[13] = tested on: field corn (Zea mays var. Pioneer 3732); assay: Postemergence herbicidal activity, corn; settings: rate of application 0.3 Kg/Ha, rated after 12-17 days
Method: as §1, §2, §3, §4, §5

[14] = tested on: morningglory (Ipomea lacunosa or Ipomea hederacea); assay: Postemergence herbicidal activity, morningglory; settings: rate of application 0.3 Kg/Ha, rated after 12-17 days
Method: as §1, §2, §3, §4, §5

[15] = tested on: soybean (Glycine max var. Winchester); assay: Preemergence herbicidal activity, soybean; settings: Rate of Application 0.3 Kg/Ha, examined after 12-17 days
Method: as §1, §2, §3, §4, §5

[16] = tested on: wheat (Triticum aestivum var. Lew); assay: Preemergence herbicidal activity, wheat; settings: Rate of Application 0.3 Kg/Ha, examined after 12-17 days
Method: as §1, §2, §3, §4, §5

[17] = tested on: velvetleaf (Abutilon theophrasti); assay: Postemergence herbicidal activity, velvetleaf; settings: rate of application 0.3 Kg/Ha, rated after 12-17 days
Method: as §1, §2, §3, §4, §5

[18] = tested on: blackgrass (Aloepecurus myosuroides); assay: Preemergence herbicidal activity, blackgrass; settings: Rate of Application 0.3 Kg/Ha, examined after 12-17 days
Method: as §1, §2, §3, §4, §5

[19] = tested on: common cocklebur (Xanthium strumarium L.); assay: Postemergence herbicidal activity, cocklebur; settings: rate of application 0.3 Kg/Ha, rated after 12-17 days
Method: as §1, §2, §3, §4, §5

| SMILES | PREEMERGENCE HERBICIDAL ACTIVITY (% CONTROL) SETVI [1] | Postemergence herbicidal activity (% control) SORHA [2] | PREEMERGENCE HERBICIDAL ACTIVITY (% CONTROL) XANPE [3] | PREEMERGENCE HERBICIDAL ACTIVITY (% CONTROL) SORHA [4] | PREEMERGENCE HERBICIDAL ACTIVITY (% CONTROL) IPOSS [5] | PREEMERGENCE HERBICIDAL ACTIVITY (% CONTROL) CRN [6] | Postemergence herbicidal activity (% control) SOY [7] | PREEMERGENCE HERBICIDAL ACTIVITY (% CONTROL) STEME [8] | Postemergence herbicidal activity (% control) WHT [9] | Postemergence herbicidal activity (% control) STEME [10] | PREEMERGENCE HERBICIDAL ACTIVITY (% CONTROL) ABUTH [11] | Postemergence herbicidal activity (% control) SETVI [12] | Postemergence herbicidal activity (% control) CRN [13] | Postemergence herbicidal activity (% control) IPOSS [14] | PREEMERGENCE HERBICIDAL ACTIVITY (% CONTROL) SOY [15] | PREEMERGENCE HERBICIDAL ACTIVITY (% CONTROL) WHT [16] | Postemergence herbicidal activity (% control) ABUTH [17] | PREEMERGENCE HERBICIDAL ACTIVITY (% CONTROL) ALOMY [18] | Postemergence herbicidal activity (% control) XANPE [19] |
| --- | --- | --- | --- | --- | --- | --- | --- | --- | --- | --- | --- | --- | --- | --- | --- | --- | --- | --- | --- |
| Cn1c(C(F)(F)F)cc(=O)n(-c2ccc(Cl)c3cc(C(N)=O)oc23)c1=O [Compound 269] | 100% | 60% | 100% | 75% | 100% | 80% | 90% | 100% | 40% | 80% | 100% | 70% | 70% | 80% | 60% | 30% | 100% | 70% | – |
| CN(C)C(=O)c1cc2c(Cl)ccc(-n3c(=O)cc(C(F)(F)F)n(C)c3=O)c2o1 [Compound 271] | 100% | 50% | 100% | 90% | 100% | 90% | 80% | 100% | 40% | 100% | 100% | 70% | 60% | 100% | 80% | 70% | 100% | 80% | – |
| Cn1c(C(F)(F)F)cc(=O)n(-c2ccc(Cl)c3cc(CBr)oc23)c1=O [Compound 232] | 40% | 10% | 10% | 25% | 80% | 50% | 75% | 20% | 50% | 20% | 90% | 30% | 30% | 80% | 20% | 30% | 100% | – | 40% |
